Consider eleven molecules from ChEMBL document CHEMBL1201862, “PubChem BioAssay data set” (2004).

Some test systems named below: 786-0; ACHN; CAKI-1; DU-145; HCC 2998; HL-60; IGROV-1; MDA-MB-231; Malme-3M; OVCAR-3; RPMI-8226; RXF 393; SF-295; SF-539; SK-OV-3; SN12C; U-251; UACC-62; UO-31; A498.
Holding throughout (experiment): NCI anticancer screen, dose series, 48 h

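1) Cells in 96-well plates. 2) Compound, 48 h, 5 concentrations. 3) Linear interpolation between surrounding doses. 4) Unreached endpoint = highest concentration. Here, GI50 denotes the concentration required for 50% inhibition of growth.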 The source made the active and inactive calls. Cut-off read from the data, not from the text of the source: active = GI50 up to about 1.1 µM and inactive = higher.

Take `Cc1ccc(-c2nc3cc([N+](=O)[O-])ccc3[nH]2)cc1`: the GI50 in the test with 786-0 was > 100 µM (inactive); with ACHN it was 53 µM (inactive); in the test on CAKI-1 it was 38 µM (inactive); in the test on DU-145, 82.8 µM (inactive); in the test on HCC 2998 it was 43.4 µM (inactive); in the test on HL-60, 45.3 µM (inactive). The GI50 was > 100 µM (inactive) in the test on IGROV-1; > 100 µM (inactive) in the test with MDA-MB-231; > 100 µM (inactive) in the test on Malme-3M; 67.5 µM (inactive) in the test on OVCAR-3; 43.1 µM (inactive) with RPMI-8226; > 100 µM (inactive) with RXF 393. In addition, the GI50 in the test on SF-295 was 63 µM (inactive); with SF-539, > 100 µM (inactive); in the test with SK-OV-3, > 100 µM (inactive); in the test with SN12C, > 100 µM (inactive); in the test with U-251, > 100 µM (inactive); in the test on UACC-62, > 100 µM (inactive). In the test on UO-31, the GI50 was 57.8 µM (inactive).

As to `CN(C)c1ccc2nc3c(C(=O)O)cc(O)c(O)c3[o+]c2c1`, the GI50 with 786-0 was 29.1 µM (inactive); in the test with A498, > 100 µM (inactive); in the test with ACHN, 31.5 µM (inactive); with CAKI-1, 52.8 µM (inactive); with DU-145, 31.8 µM (inactive); with HL-60, 22.3 µM (inactive). Also, the GI50 is 92.3 µM (inactive) with IGROV-1; 33 µM (inactive) with MDA-MB-231; 6.49 µM (inactive) in the test with Malme-3M; 13.3 µM (inactive) in the test on OVCAR-3; 18.8 µM (inactive) in the test with RPMI-8226; 24.6 µM (inactive) with RXF 393. Moreover, the GI50 is > 100 µM (inactive) in the test on SF-295; 27 µM (inactive) with SF-539; 25 µM (inactive) in the test on SK-OV-3; 20.2 µM (inactive) with SN12C; 29.7 µM (inactive) in the test on U-251; 20 µM (inactive) with UACC-62. In addition, the GI50 in the test with UO-31 was 28.6 µM (inactive).

Take `COc1ccc(N2C(=O)CSC2c2cc(OC)c(OC)c(OC)c2)cc1` (centres undefined): the GI50 with 786-0 was 21.4 µM (inactive); in the test with A498, 29 µM (inactive); in the test on ACHN it was 20.7 µM (inactive); with CAKI-1, 25 µM (inactive); in the test on DU-145, 14.5 µM (inactive); with HCC 2998, 16.7 µM (inactive). Besides, the GI50 with HL-60 was 17.5 µM (inactive); in the test on IGROV-1 it was 33.7 µM (inactive); in the test with MDA-MB-231 it was 26.5 µM (inactive); with Malme-3M, 23.7 µM (inactive); in the test on OVCAR-3 it was 25.5 µM (inactive); in the test with RPMI-8226 it was 27.5 µM (inactive). In addition, the GI50 in the test with SF-295 was 22.6 µM (inactive); with SF-539, 32.8 µM (inactive); in the test with SK-OV-3, 24.2 µM (inactive); with SN12C, 25.1 µM (inactive); in the test with U-251, 18.9 µM (inactive); in the test with UACC-62 it was 4.71 µM (inactive). Also, the GI50 in the test on UO-31 was 11.8 µM (inactive).

As for `O=c1oc2ccccc2cc1/C=N/N1C(=S)N(c2ccccc2)C(=N\c2ccccc2)/C1=N/c1ccccc1`, the GI50 in the test on 786-0 is > 100 µM (inactive); in the test with ACHN, 39.6 µM (inactive); in the test with CAKI-1, > 100 µM (inactive); in the test with DU-145, > 100 µM (inactive); in the test on HCC 2998, > 100 µM (inactive); in the test on IGROV-1, > 100 µM (inactive). For the same molecule, the GI50 was > 100 µM (inactive) in the test with MDA-MB-231; > 100 µM (inactive) in the test on Malme-3M; > 100 µM (inactive) in the test with OVCAR-3; > 100 µM (inactive) in the test with RPMI-8226; 26.4 µM (inactive) in the test on RXF 393; 28.1 µM (inactive) in the test with SF-295. Besides, the GI50 is > 100 µM (inactive) in the test on SF-539; > 100 µM (inactive) in the test on SK-OV-3; > 100 µM (inactive) in the test with SN12C; > 100 µM (inactive) with U-251; 98.2 µM (inactive) with UACC-62; > 100 µM (inactive) in the test with UO-31.

Consider `CCOC(=O)Nc1sc2c(c1C#N)CC(C)CC2` (centres undefined), for which the GI50 is 10.1 µM (inactive) in the test on 786-0; 14.7 µM (inactive) in the test with ACHN; 21.8 µM (inactive) in the test on CAKI-1; 20.9 µM (inactive) with DU-145; 2.24 µM (inactive) in the test on HCC 2998; 0.1 µM (active) in the test with HL-60. Further, the GI50 was 7.52 µM (inactive) in the test with IGROV-1; 5.56 µM (inactive) in the test with MDA-MB-231; 8.55 µM (inactive) in the test on Malme-3M; 5.87 µM (inactive) in the test with OVCAR-3; 4.86 µM (inactive) with RPMI-8226; 5.38 µM (inactive) in the test with RXF 393. For the same molecule, the GI50 was 11.6 µM (inactive) in the test on SF-295; 23 µM (inactive) in the test on SK-OV-3; 9.62 µM (inactive) in the test on SN12C; 5.42 µM (inactive) in the test on U-251; 4.49 µM (inactive) with UACC-62; 8.91 µM (inactive) in the test on UO-31.

Turning to `O=C1N=C(S)NNC12c1ccccc1-c1ccccc12`, the GI50 was > 10 µM (inactive) in the test on 786-0; 3.31 µM (inactive) in the test with A498; > 10 µM (inactive) with CAKI-1; > 10 µM (inactive) in the test on DU-145; > 10 µM (inactive) in the test on HCC 2998; > 10 µM (inactive) in the test on HL-60. Moreover, the GI50 with IGROV-1, with MDA-MB-231, in the test on Malme-3M, with RPMI-8226, in the test on SF-539 and in the test on SK-OV-3 was > 10 µM (inactive) in each case. The GI50 is > 10 µM (inactive) in the test on SN12C, > 10 µM (inactive) in the test with U-251, > 10 µM (inactive) with UACC-62 and 4.81 µM (inactive) in the test with UO-31.

Take `NC(=S)c1cccc(C2Nc3ccccc3O2)c1` (centres undefined): the GI50 is > 100 µM (inactive) with 786-0; 40.2 µM (inactive) in the test with ACHN; > 100 µM (inactive) in the test with CAKI-1; > 100 µM (inactive) with DU-145; 12.1 µM (inactive) in the test with HL-60; > 100 µM (inactive) in the test with IGROV-1. Moreover, the GI50 with MDA-MB-231 is 6.25 µM (inactive); with Malme-3M it was > 100 µM (inactive); in the test on OVCAR-3 it was > 100 µM (inactive); with RPMI-8226 it was < 0.01 µM (active); with RXF 393, > 100 µM (inactive); in the test on SF-295, 68.9 µM (inactive). Moreover, the GI50 with SF-539 was 61.1 µM (inactive); in the test with SK-OV-3, > 100 µM (inactive); in the test on SN12C it was < 0.01 µM (active); in the test with U-251 it was > 100 µM (inactive); with UACC-62, 19.5 µM (inactive); in the test on UO-31, > 100 µM (inactive).

On to `Clc1cccc(Cl)c1C1SCc2nc3cc4ccccc4cc3n21` (centres undefined), for which the GI50 in the test with 786-0, with ACHN, in the test on CAKI-1, with DU-145, with HCC 2998 and with IGROV-1 was > 100 µM (inactive) throughout. For the same molecule, the GI50 in the test with MDA-MB-231, in the test with Malme-3M, in the test with OVCAR-3, with RPMI-8226, with RXF 393 and in the test on SF-295 was > 100 µM (inactive) each time. In addition, the GI50 in the test with SK-OV-3, in the test with SN12C, in the test on U-251, with UACC-62 and with UO-31 was > 100 µM (inactive) each time.

For `O=S(=O)(O)c1ccc2c(/N=N/c3cccc4ccccc34)c(O)ccc2c1`, the GI50 in the test with 786-0, in the test with A498, in the test on ACHN, in the test with CAKI-1, in the test on DU-145 and with HL-60 was > 100 µM (inactive) throughout. Further, the GI50 with IGROV-1, with MDA-MB-231, in the test with Malme-3M, with OVCAR-3, with RPMI-8226 and in the test with RXF 393 was > 100 µM (inactive) in each case. Further, the GI50 in the test with SF-295 is 39.1 µM (inactive); with SK-OV-3, > 100 µM (inactive); in the test with SN12C, > 100 µM (inactive); with U-251, 87.1 µM (inactive); in the test on UACC-62 it was > 100 µM (inactive); in the test on UO-31, > 100 µM (inactive).

For the molecule `Brc1cccc(/N=N/N2CCCC2)c1`, the GI50 with 786-0 was > 100 µM (inactive); with A498 it was > 100 µM (inactive); in the test on ACHN it was > 100 µM (inactive); with CAKI-1, 75.5 µM (inactive); with DU-145 it was > 100 µM (inactive); with HL-60, 16.4 µM (inactive). Moreover, the GI50 in the test on IGROV-1 is > 100 µM (inactive); in the test on MDA-MB-231, > 100 µM (inactive); with OVCAR-3, > 100 µM (inactive); with RPMI-8226, 17.2 µM (inactive); with RXF 393 it was > 100 µM (inactive); in the test with SF-295, 97.5 µM (inactive). Also, the GI50 with SF-539 is > 100 µM (inactive); in the test on SK-OV-3, > 100 µM (inactive); in the test with SN12C, > 100 µM (inactive); in the test on U-251 it was 80.5 µM (inactive); in the test on UACC-62 it was > 100 µM (inactive); in the test with UO-31 it was 56.1 µM (inactive).

For `CC(C)=CCC/C(C)=C/CO` [GERANIOL], the GI50 in the test with 786-0, in the test on A498, in the test with ACHN, with CAKI-1, with DU-145 and in the test on HCC 2998 was > 100 µM (inactive) throughout. Also, the GI50 in the test on HL-60, in the test with IGROV-1, with MDA-MB-231, in the test on Malme-3M, in the test on OVCAR-3 and in the test with RPMI-8226 was > 100 µM (inactive) each time. Also, the GI50 with SF-295, with SF-539, with SK-OV-3, in the test with SN12C, in the test on U-251 and in the test with UACC-62 was > 100 µM (inactive) throughout. Moreover, in the test with UO-31, the GI50 was > 100 µM (inactive).
